Test results reported in patent publication US5037812A, “Tumor cell growth-inhibiting pharmaceutical compositions containing phosphino-hydrocarbon-gold, silver or copper complexes” (priority 1986, dated 1991).
Values joined by “and” are separate entries in the source; they are usually repeats but may differ in a detail not shown here. Equal entries are not always repeated.

Key:
P388 leukemia = experiment: ip P388 leukemia mouse model; assay type: in vivo, mice (B6D2F1); settings: for MTD (maximally tolerated dose): B6D2F female mice, ip qDX5; for ILS max (maximum increase in lifespan): mice bearing ip P388 leukemia, ip days 1-5 at MTD, slash-separated figures are separate experiments
Description: This tumor system is widely accepted as an antitumor agent screening tool because it is sensitive to virtually all of the clinically active antineoplastic agents; quantitative and reproducible; amenable for large-scale screening; and predictive for activity in other animal tumor models.
10^6 P388 leukemia cells are inoculated ip in B6D2F1 mice. Twenty-four hours later, if the tumor inoculum proves to be free of bacterial contamination (as determined by 24 hours incubation in thioglycollate broth), animals are randomized into groups of 6 and housed in shoebox cages. […] An equal volume of saline or water is added; if the drug comes out of solution an equal volume of Cremophor (polyethoxylated castor oil) is added and then saline or water, as to a concentration such that the desired dose is delivered in 0.5 ml. The final concentration of DMA, ethanol or Cremophor is 10 percent. Dilutions for lower doses are made with saline or water so that there is a decreasing proportion of organic solvents in the vehicle with decreasing dosage. […] Formulations are prepared immediately prior to injection. The Formula (I) and Formula (II) compounds are administered ip on Days 1 through 5 (i.e., treatment is initiated 24 hrs after tumor inoculation). Each experiment includes three groups of 6 animals as untreated controls and animals treated with a positive control, cisplatin, at two dose levels. Animals are weighed as a group on Days 1, 5 and 9 and average weight change (Δwt.) is used as a reflection of toxicity. Each experiment also includes an inoculum titration--groups of 8 mice inoculated ip with 10^5 to 10^0 P388 leukemia cells. The titration is used as a quality control check for the performance of the tumor model. Animals are monitored daily for mortality and experiments are terminated after 45 days. The endpoint is median survival time (MST) and increase in lifespan (ILS) which is the percentage of increase in MST relative to untreated controls.

[1] = solubility in 9:1 water:ethanol (HPLC of filtrate); settings: stirred 15 hours, 0.45 μm PTFE filter, HPLC
Description: Such solubility was determined as follows: The compound in question was dissolved or suspended in absolute ethanol (250 mg solid per 1.0 ml ethanol). To the resulting solution or suspension, water (9.0 times the volume of ethanol) was added. This suspension was stirred vigorously for 15 hours, then filtered through a 0.45 μm poly(tetrafluoroethylene) (PTFE) filter. […] The HPLC system was as follows:
Column PLRP-S, 5μm, obtained from Polymer Laboratories, Inc.
Mobile Phase 9:1 acetonitrile:0.1% tetra-n-butylammonium hydrogen sulfate (50° C., 1.0 ml-min-^-1)
Detection Ultraviolet (250 nm)

B16 melanoma = experiment: in vivo ip B16 melanoma assay; parameters: species or system mice (B6D2F1); settings: ip qDX10; for MTD (maximally tolerated dose): B6D2F1 mice; for ILS (maximum increase in lifespan): mice bearing ip B16 melanoma, slash-separated figures are separate experiments
Description: Daily treatment is begun 24 hours after tumor implantation and is continued daily for ten (10) days. The route of drug administration is ip. The mice are monitored daily for survival for sixty (60) days. Antitumor activity is assessed by prolongation of median survival time. An ILS of ≥25% indicates activity in this tumor model.
^(b) maximally tolerated dose for B6D2F1 mice on an ip qDX10
^(c) maximum increase in lifespan produced in mice bearing ip B16

Row | Compound | MTD (maximally tolerated dose) (P388 leukemia) | ILS max (maximum increase in lifespan) (P388 leukemia) | Solubility in 9:1 Water:Ethanol [1] | MTD (maximally tolerated dose) (B16 melanoma) | ILS (maximum increase in lifespan) (B16 melanoma)
1 | O=[N+]([O-])[O-].[Au+].c1ccc(P(CCP(c2ccccc2)c2ccccc2)c2ccccc2)cc1.c1ccc(P(CCP(c2ccccc2)c2ccccc2)c2ccccc2)cc1 [compound 5, Bis[1,2-bis(diphenylphosphino)ethane]Gold(I) Nitrate] | 3 mg/kg | 90 ± 17% | 0.03 mg/mL |  | 
2 | Fc1cccc(P(CCP(c2cccc(F)c2)c2cccc(F)c2)c2cccc(F)c2)c1.Fc1cccc(P(CCP(c2cccc(F)c2)c2cccc(F)c2)c2cccc(F)c2)c1.[Au+].[Cl-] [compound 7, Bis[1,2-bis[bis(. Phosphino]ethane]Gold(I) Chloride] |  | 45% and 55% |  |  | 
3 | CCP(CC)CCP(c1ccccc1)c1ccccc1.CCP(CC)CCP(c1ccccc1)c1ccccc1.[Cl-].[Cu+] [compound 9] | 1.5 mg/kg | 48% and 45% |  |  | 
4 | CCP(CC)CCP(CC)CC.CCP(CC)CCP(CC)CC.F[P-](F)(F)(F)(F)F.[Au+] [compound 10, Bis[1,2-bis(diethylphosphino)ethane]Gold(I) Hexafluorophosphate] | 4 mg/kg | 40% and 30% |  |  | 
5 | [Cl-].[Cu+].c1ccc(P(CCCP(c2ccccc2)c2ccccc2)c2ccccc2)cc1.c1ccc(P(CCCP(c2ccccc2)c2ccccc2)c2ccccc2)cc1 [compound 12, Bis[1,3-bis(diphenylphosphino)propane]Copper(I) Chloride] | 2 mg/kg | 92 ± 15% |  | 1 mg/kg | 32% and 47%
6 | CS(=O)(=O)[O-].[Au+].c1ccc(P(CCP(c2ccccc2)c2ccccc2)c2ccccc2)cc1.c1ccc(P(CCP(c2ccccc2)c2ccccc2)c2ccccc2)cc1 [compound 14, Bis[1,2-bis(diphenylphosphino)ethane]gold(I) methanesulfonate] | 2 mg/kg | 81 ± 17% | 0.03 mg/mL |  | 
7 | CC(O)C(=O)[O-].[Au+].c1ccc(P(CCP(c2ccccc2)c2ccccc2)c2ccccc2)cc1.c1ccc(P(CCP(c2ccccc2)c2ccccc2)c2ccccc2)cc1 [compound 15, Bis[1,2-bis(diphenylphosphino)ethane]gold(I) 2-hydroxypropanoate] | 2 mg/kg | 71 ± 12% | 5.2 mg/mL | 1.5 mg/kg | 30%
8 | O=C([O-])C1OC(O)C(O)C(O)C1O.[Au+].c1ccc(P(CCP(c2ccccc2)c2ccccc2)c2ccccc2)cc1.c1ccc(P(CCP(c2ccccc2)c2ccccc2)c2ccccc2)cc1 [compound 16, Bis[1,2-bis(diphenylphosphino)ethane]gold(I) glucuronate] | 2 mg/kg | 64 ± 17% | 0.30 mg/mL | 1.5 mg/kg | 40%
9 | O=S(=O)([O-])[O-].c1ccc([PH]2(c3ccccc3)CC[PH](c3ccccc3)(c3ccccc3)[Au+]23[PH](c2ccccc2)(c2ccccc2)CC[PH]3(c2ccccc2)c2ccccc2)cc1.c1ccc([PH]2(c3ccccc3)CC[PH](c3ccccc3)(c3ccccc3)[Au+]23[PH](c2ccccc2)(c2ccccc2)CC[PH]3(c2ccccc2)c2ccccc2)cc1 (centres unmarked) [compound 17, Bis{bis[1,2-bis(diphenylphosphino)ethane]gold(I)} sulfate] | 2 mg/kg | 74% and 50% | 0.03 mg/mL |  | 
10 | N#C[O-].[Au+].c1ccc(P(CCP(c2ccccc2)c2ccccc2)c2ccccc2)cc1.c1ccc(P(CCP(c2ccccc2)c2ccccc2)c2ccccc2)cc1 [compound 18, Bis[1,2-bis(diphenylphosphino)ethane]gold(I) cyanate] | 2 mg/kg | 84% and 50% | 0.06 mg/mL |  | 
11 | O=S(=O)([O-])C(F)(F)F.[Au+].c1ccc(P(CCP(c2ccccc2)c2ccccc2)c2ccccc2)cc1.c1ccc(P(CCP(c2ccccc2)c2ccccc2)c2ccccc2)cc1 [compound 20, Bis[1,2-bis(diphenylphosphino)ethane]gold(I) trifluoromethanesulfonate] | 2 mg/kg | 63% and 75% | 0.02 mg/mL |  | 
12 | CC(=O)C(=O)[O-].[Au+].c1ccc(P(CCP(c2ccccc2)c2ccccc2)c2ccccc2)cc1.c1ccc(P(CCP(c2ccccc2)c2ccccc2)c2ccccc2)cc1 [compound 21, Bis[1,2-bis(diphenylphosphino)ethane]gold(I) 2-oxopropanoate] | 2 mg/kg | 60% and 50% | 0.20 mg/mL |  | 
13 | O=C([O-])CCCO.[Au+].c1ccc(P(CCP(c2ccccc2)c2ccccc2)c2ccccc2)cc1.c1ccc(P(CCP(c2ccccc2)c2ccccc2)c2ccccc2)cc1 [compound 22, Bis[1,2-(diphenylphosphino)ethane]gold(I) 4-hydroxybutanoate] | 2 mg/kg | 65% and 70% | 2.9 mg/mL |  | 
14 | O=C([O-])CO.[Au+].c1ccc(P(CCP(c2ccccc2)c2ccccc2)c2ccccc2)cc1.c1ccc(P(CCP(c2ccccc2)c2ccccc2)c2ccccc2)cc1 [compound 23, Bis[1,2-bis(diphenylphosphino)ethane]gold(I) hydroxyacetate] | 2 mg/kg | 55% and 75% | 8.6 mg/mL |  | 
15 | CCC(O)C(=O)[O-].[Au+].c1ccc(P(CCP(c2ccccc2)c2ccccc2)c2ccccc2)cc1.c1ccc(P(CCP(c2ccccc2)c2ccccc2)c2ccccc2)cc1 [compound 24, Bis[1,2-bis(diphenylphosphino)ethane]gold(I) DL-2-hydroxybutanoate] | 2 mg/kg | 55% and 80% | 0.9 mg/mL |  | 
16 | Bis[1,2-bis(diethylphosphino)ethane]Silver(I) Nitrate [compound 11] | 0.5 mg/kg | 50% and 40% |  |  | 
17 | Bis[1,2-bis[bis(4-fluorophenyl)phosphino]ethane Gold(I) Chloride [compound 6] | 3 mg/kg | 55% and 50% |  |  | 
18 | Tris{bis-[1,2-bis(diphenylphosphino)ethane]gold(I)} citrate [compound 19] | 4 mg/kg | 95% and 90% | 0.03 mg/mL |  | 
